Entries after “also recorded” stand apart in the source; their conditions may differ. Bridge positions count the residues as written; N and C are the ends. Ends that are not written are not given here.
System: lymphatic vessels
Experiment: near-infrared (NIR) imaging of indocyanine green (ICG) transport after footpad injection
Assay type: in vivo
Settings: mouse, sildenafil 12 mg/kg intraperitoneally, images taken 20 minutes after treatment, versus saline control
Experimental: To determine if phosphodiesterase (PDE) inhibitors were capable of increasing lymphatic transport, near-infrared (NIR) imaging of indocyanine green ICG) transport was used. ICG (20 μl of 0.1 mg ICG/ml water) was injected into the footpad Of the animal Where it is taken up by the lymphatic system. The extremity was illuminated with near infrared light (generated with a tungsten halogen source) resulting in near infrared fluorescence at a longer wavelength that was recorded with a near-infrared sensitive camera (Prosilica GC1380; Allied Vision Technologies; Stadtroda, Germany). Excitation and emission wavelengths were separated using Semrock filters (IDEX; Lake Forest, Ill.) from the ICG-A filter set. To determine if PDE inhibitors Were capable of increasing lymphatic transport, sildenafil (12 mg/kg), a PDE5 antagonist, was injected intraperitoneally with ICG into the footpad of a mouse. Saline was used a control.
For `CCCc1nn(C)c2c(=O)[nH]c(-c3cc(S(=O)(=O)N4CCN(C)CC4)ccc3OCC)nc12` [sildenafil], the “ICG uptake into lymphatic vessels / lymphatic system” value was “increases indocyanine green (ICG) uptake into lymphatic vessels; also recorded: increased ICG uptake into the lymphatic system”.

System: lymphatic vessels
Experiment: not given
Settings: ex vivo studies; cited from earlier work
In the case of “endothelin-1 (CSCSSLMDKECVYFCHLDIIW; disulfide 1-15, 3-11; ends not checked; UniProt P05305 53-73, looked up)”, the “lymphatic pulsing and/or flow” value is listed as “increase lymphatic pulsing and/or flow”.
In the case of hyaluronidase, the “lymphatic pulsing and/or flow” value is listed as “increase lymphatic pulsing and/or flow”.
In the case of `CCCCC[C@H](O)/C=C/[C@@H]1[C@@H](C/C=C\CCCC(=O)O)[C@H]2CO[C@@H]1C2` [U46619], the “lymphatic pulsing and/or flow” value is given as “increase lymphatic pulsing and/or flow”.
For “substance P (RPKPQQFFGLM-NH2; ends and bridges not checked; UniProt P20366 58-68, looked up)”, the “lymphatic pulsing and/or flow” value is listed as “increase lymphatic pulsing and/or flow”.
For `O=S(=O)(O)c1cc(O)ccc1O` [doxium], the “lymphatic pulsing and/or flow” value is listed as “increase lymphatic pulsing and/or flow”.
In the case of `NC[C@H](O)c1ccc(O)c(O)c1` [norepinephrine], the “lymphatic pulsing and/or flow” value is given as “increase lymphatic pulsing and/or flow”.

From patent US20160022681A1, “METHODS OF INCREASING LYMPHATIC TRANSPORT” (UNIVERSITY OF ROCHESTER, priority 2012, published 2016)
